Source: ChEMBL document CHEMBL2331402, “Salicylaldoxime derivatives as new leads for the development of carbonic anhydrase inhibitors” (Bioorg Med Chem, 2013)

How the values were obtained:
[1] = target: Carbonic anhydrase 2 (Homo sapiens, UniProt P00918); assay: Inhibition of human recombinant carbonic anhydrase 2 preincubated for 15 mins by CO2 hydration stopped-flow assay
[2] = target: Carbonic anhydrase 1 (Homo sapiens, UniProt P00915); assay: Inhibition of human recombinant carbonic anhydrase 1 preincubated for 15 mins by CO2 hydration stopped-flow assay
[3] = target: Carbonic anhydrase 12 (Homo sapiens, UniProt O43570); assay: Inhibition of human recombinant carbonic anhydrase 12 preincubated for 15 mins by CO2 hydration stopped-flow assay
[4] = target: Carbonic anhydrase 9 (Homo sapiens, UniProt Q16790); assay: Inhibition of human recombinant carbonic anhydrase 9 preincubated for 15 mins by CO2 hydration stopped-flow assay

Carbonic anhydrase 1, sequence (P00915 whole entry): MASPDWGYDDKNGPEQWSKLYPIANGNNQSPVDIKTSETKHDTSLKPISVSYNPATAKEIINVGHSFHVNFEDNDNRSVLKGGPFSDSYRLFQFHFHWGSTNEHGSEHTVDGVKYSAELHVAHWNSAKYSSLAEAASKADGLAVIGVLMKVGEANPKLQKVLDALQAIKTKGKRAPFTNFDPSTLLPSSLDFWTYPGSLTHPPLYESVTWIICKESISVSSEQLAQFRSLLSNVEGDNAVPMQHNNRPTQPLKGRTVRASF
Carbonic anhydrase 12, sequence (O43570 whole entry): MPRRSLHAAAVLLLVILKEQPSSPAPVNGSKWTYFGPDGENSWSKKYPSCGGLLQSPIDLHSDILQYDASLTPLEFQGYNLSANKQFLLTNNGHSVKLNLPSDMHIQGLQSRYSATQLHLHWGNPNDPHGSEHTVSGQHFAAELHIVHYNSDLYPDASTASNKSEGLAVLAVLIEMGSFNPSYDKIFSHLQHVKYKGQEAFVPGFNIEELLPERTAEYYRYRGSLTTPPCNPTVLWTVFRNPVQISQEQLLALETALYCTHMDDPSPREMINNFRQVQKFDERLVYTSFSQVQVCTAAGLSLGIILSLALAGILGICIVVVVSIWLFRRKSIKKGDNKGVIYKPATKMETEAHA

| Ki [1] | Ki [2] | Ki [3] | Ki [4] | Compound |
| --- | --- | --- | --- | --- |
| 2.3 µM | 3.98 µM | 4.31 µM | – | O/N=C/c1c(O)ccc(-c2ccc(O)cc2)c1Cl |
| 3.74 µM | 7.27 µM | 5.53 µM | 7.04 µM | O/N=C/c1c(O)ccc(-c2ccc(O)c(F)c2)c1Cl |
| 340 µM | – | – | 0.944 µM | Oc1cc(F)cc(F)c1 |
| 5.87 µM | 7.65 µM | 3.14 µM | 7.72 µM | N#Cc1c(-c2ccc(O)cc2)ccc(/C=N/O)c1O |
| 6.35 µM | 7.88 µM | 7.45 µM | 6.43 µM | Cc1c(-c2ccc(O)cc2)ccc(/C=N/O)c1O |
| 3.66 µM | 6.93 µM | 5.94 µM | 10.2 µM | COc1ccc(-c2ccc(O)c(/C=N/O)c2)cc1F |
| 4.13 µM | 9.13 µM | 4.24 µM | 6.99 µM | O/N=C/c1cc(-c2ccc(O)c(F)c2)ccc1O |
| 3.32 µM | 6.9 µM | 4.53 µM | 10.2 µM | C/C(=N\O)c1ccc(-c2ccc(O)cc2)c(Cl)c1O |
| 4.96 µM | 7.57 µM | 4.77 µM | 7.08 µM | C/C(=N\O)c1ccc(-c2ccc(O)c(F)c2)c(Cl)c1O |
